Test results: PubChem BioAssay (NCI)
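Tested at 5 concentrations; 48 h exposure; 96-well plates; endpoints linearly interpolated, else capped at highest concentration. Abbreviation: GI50, concentration required for 50% inhibition of growth. TGI marks complete inhibition of growth.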

Assays:
Experiment in all cases: growth of human tumour cells (NCI), 48 h
[1] = test system: NCI-H460 lung
[2] = test system: OVCAR-4 ovarian
[3] = test system: RPMI-8226 leukemia
[4] = test system: SK-MEL-28 melanoma
[5] = test system: HOP-92 NSCLC
[6] = test system: OVCAR-8 ovarian
[7] = test system: UACC-62 melanoma
[8] = test system: MALME-3M melanoma
[9] = test system: HCT-15 colon
[10] = test system: DMS 114 small cell lung
[11] = test system: KM20L2 colon
[12] = test system: DLD-1 colon
[13] = test system: DMS 273 small cell lung
[14] = test system: M19-MEL melanoma
[15] = test system: LXFL 529 NSCLC
[16] = test system: XF 498 CNS
[17] = test system: HOP-18 NSCLC
[18] = test system: SNB-78 CNS

SMILES | TGI [1] [µM] | TGI [2] [µM] | TGI [3] [µM] | TGI [4] [µM] | TGI [5] [µM] | TGI [6] [µM] | TGI [7] [µM] | TGI [8] [µM] | TGI [9] [µM] | TGI [10] [µM] | TGI [11] [µM] | TGI [12] [µM] | TGI [13] [µM] | TGI [14] [µM] | TGI [15] [µM] | TGI [16] [µM] | TGI [17] [µM] | TGI [18] [µM] | GI50 [3] [µM]
C[C@]12[C@@H]3CC[C@H]1[C@@H](OC(=O)Nc1cc([N+](=O)[O-])cc([N+](=O)[O-])c1)C(=O)N2CC3 | > 100 | > 100 | > 100 | > 100 | > 100 | > 100 | > 100 | > 100 | > 100 |  |  |  |  |  |  |  |  |  | 
CCOC(=O)c1cnc(-n2[nH]c3c(c2=O)CCCC3)[nH]c1=O | > 100 | > 100 | > 100 | > 100 | 57.6 | > 100 | 95.4 | > 100 | > 100 |  |  |  |  |  |  |  |  |  | 
CSc1nc2[nH]c(=O)c(C)nc2c(=O)[nH]1 | > 100 | > 100 | > 100 | > 100 | > 100 | > 100 | > 100 | > 100 | > 100 | > 100 | > 100 | > 100 | > 100 | > 100 | > 100 | > 100 |  |  | 
NC(=O)c1[nH]cnc1/N=N/SCC(N)C(=O)O (configuration not stated) | > 100 | > 100 | > 100 | > 100 | > 100 | > 100 | > 100 | > 100 | > 100 |  |  |  |  |  |  |  |  |  | 
COc1cc([C@@H]2c3cc4c(cc3[C@@H](NC(=O)c3cccc(F)c3)C3COC(=O)[C@@H]32)OCO4)cc(OC)c1O (some centres not stated) | 7.52 | > 100 | 5.85 | 56.5 | 89.6 | 16.1 | 3.7 | 7.83 | 7.09 | 5.2 | 6.89 | 25.4 | 11.3 | 41.4 | > 100 |  | > 100 | > 100 | 
CC(=O)NNc1nc(C)c(C(/C=C/c2ccc(Cl)cc2)=N/NC(=O)C[N+](C)(C)C)s1 | > 100 | > 100 |  | > 100 | > 100 |  | > 100 | > 100 | > 100 | > 100 | > 100 | > 100 | > 100 | > 100 | > 100 |  | > 100 |  | 
C=C1CN(Cc2ccccc2)[C@@H]2CCCCC[C@H](C#N)[C@H]12 | > 100 | > 100 | > 80.1 | > 100 | > 93 | > 100 | > 100 | > 100 | > 100 |  |  |  |  |  |  |  |  |  | 
C=C1C(=O)O[C@H]2[C@H]1CC(=O)/C(C)=C/CC[C@@]1(C)O[C@@H]21 | 29.8 | 12.9 | 1.92 | 1.3 | 1.65 | 7.47 | 2.76 | 3.48 | 1.56 |  |  |  |  |  |  |  |  |  | 0.308
COc1cc2c(cc1OCc1ccccc1)NC(=S)[C@@H]1CCCN1C2=S | > 100 | > 100 | > 100 | > 100 | > 100 | > 100 | > 100 | > 100 | > 100 |  |  |  |  |  |  |  |  |  | 
